Laboratory results taken from the supplement of paper PMC6045584.
± gives the standard deviation of the averaged measurements.

Experiments:
[1] = compound: COc1cc2c(Oc3ccc(NC(=O)C4(C(=O)Nc5ccc(F)cc5)CC4)cc3F)ccnc2cc1OCCCN1CCOCC1 [FORETINIB]; test: surviving fraction relative to DMSO-only wells; higher = less growth inhibition; settings: exposure time: 5 days
Procedure, shortened: (§1)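 After seeding at 250–500 cells per well in 384-well plates and a 24-hour wait, log-phase tumour cell lines were exposed without interruption for five days to inhibitors at 0.5, 1, 5, 10, 50, 100, 500 and 1000 nM. CellTiter-Glo luminescence was recorded after 10 minutes at room temperature. Viability is reported as surviving fraction, the luminescence normalised to the median of DMSO-only wells.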

[2] = compound: CNCc1ccc(-c2[nH]c3cc(F)cc4c3c2CCNC4=O)cc1; test: as above; settings: exposure time: 5 days
Procedure, shortened: as §1

Test System	surviving fraction ([1]; 0.5 nM)	surviving fraction ([1]; 1 nM)	surviving fraction ([1]; 5 nM)	surviving fraction ([1]; 10 nM)	surviving fraction ([1]; 50 nM)	surviving fraction ([1]; 100 nM)	surviving fraction ([1]; 500 nM)	surviving fraction ([1]; 1000 nM)	surviving fraction ([2]; 0.5 nM)	surviving fraction ([2]; 1 nM)	surviving fraction ([2]; 5 nM)	surviving fraction ([2]; 10 nM)	surviving fraction ([2]; 50 nM)	surviving fraction ([2]; 100 nM)	surviving fraction ([2]; 500 nM)	surviving fraction ([2]; 1000 nM)
MCF7 BREAST	0.938 ± 0.026	0.958 ± 0.056	0.972 ± 0.031	0.993 ± 0.057	0.908 ± 0.052	0.959 ± 0.0097	0.669 ± 0.055	0.701 ± 0.066	0.923 ± 0.057	0.927 ± 0.072	0.921 ± 0.086	0.918 ± 0.084	0.951 ± 0.058	0.93 ± 0.081	0.865 ± 0.0098	0.924 ± 0.043
SUM44 BREAST	1.14 ± 0.27	1.19 ± 0.36	1.18 ± 0.27	1.23 ± 0.31	1.19 ± 0.21	1.26 ± 0.32	1.11 ± 0.17	1.12 ± 0.19	0.927 ± 0.097	0.981 ± 0.098	1.01 ± 0.14	1.02 ± 0.11	0.841 ± 0.088	0.911 ± 0.027	0.892 ± 0.061	0.896 ± 0.042
SIHA CERVIX	1.12 ± 0.02	1.18 ± 0.04	1.09 ± 0.046	1.09 ± 0.081	1.01 ± 0.066	1.01 ± 0.031	0.667 ± 0.019	0.523 ± 0.0076	0.984 ± 0.028	1.06 ± 0.13	1.09 ± 0.03	1.01 ± 0.035	0.907 ± 0.064	0.934 ± 0.023	1.03 ± 0.021	0.832 ± 0.037
VCAP PROSTATE	0.975 ± 0.059	0.96 ± 0.13	1.12 ± 0.094	1.03 ± 0.082	1.11 ± 0.1	1.08 ± 0.2	0.547 ± 0.09	0.4 ± 0.044	1.01 ± 0.11	1.04 ± 0.14	1.06 ± 0.21	1.04 ± 0.052	0.921 ± 0.12	1.02 ± 0.07	0.881 ± 0.15	0.908 ± 0.092
HUO3N1 BONE	1 ± 0.035	0.992 ± 0.079	1.06 ± 0.059	1.01 ± 0.039	0.903 ± 0.04	0.819 ± 0.006	0.619 ± 0.02	0.412 ± 0.025	1.04 ± 0.061	1.02 ± 0.062	1.04 ± 0.038	0.987 ± 0.099	0.933 ± 0.06	0.988 ± 0.04	0.884 ± 0.039	0.85 ± 0.032
YAMATO SYNOVIAL	0.998 ± 0.072	1.16 ± 0.098	1 ± 0.12	1.02 ± 0.078	0.585 ± 0.025	0.369 ± 0.035	0.295 ± 0.017	0.272 ± 0.018	1.32 ± 0.043	1.35 ± 0.12	1.28 ± 0.066	1.3 ± 0.1	0.949 ± 0.13	0.982 ± 0.11	0.794 ± 0.022	0.811 ± 0.13
ASKA SYNOVIAL	1.11 ± 0.065	1.14 ± 0.037	1.06 ± 0.085	1.07 ± 0.075	1.13 ± 0.042	1.03 ± 0.044	0.371 ± 0.026	0.297 ± 0.0071	1.1 ± 0.024	1.04 ± 0.072	1.04 ± 0.07	0.987 ± 0.017	0.887 ± 0.053	0.72 ± 0.019	0.653 ± 0.1	0.585 ± 0.057
MDAMB436 BREAST	0.976 ± 0.091	0.923 ± 0.086	0.982 ± 0.043	1.05 ± 0.14	1.02 ± 0.043	0.91 ± 0.2	0.856 ± 0.16	0.687 ± 0.047	0.882 ± 0.12	0.925 ± 0.083	0.874 ± 0.092	0.82 ± 0.1	0.62 ± 0.11	0.587 ± 0.053	0.542 ± 0.097	0.531 ± 0.064
H23 LUNG	1.04 ± 0.058	1.07 ± 0.073	1.06 ± 0.073	0.982 ± 0.035	0.976 ± 0.079	0.986 ± 0.08	0.889 ± 0.024	0.388 ± 0.015	1.05 ± 0.061	1.07 ± 0.066	1.05 ± 0.025	1.1 ± 0.011	1.16 ± 0.076	1.11 ± 0.043	1.14 ± 0.035	1.12 ± 0.021
COLO320DM LARGE INTESTINE	1.09 ± 0.087	1.13 ± 0.066	1.07 ± 0.026	1.12 ± 0.076	1.05 ± 0.045	1.08 ± 0.11	0.517 ± 0.023	0.429 ± 0.05	1.04 ± 0.067	1.05 ± 0.021	1.12 ± 0.027	0.962 ± 0.1	0.96 ± 0.04	0.933 ± 0.12	0.933 ± 0.066	0.901 ± 0.014
